Reference: patent US20060188903A1, “Implantation serine proteinases” (priority 2001, published 2006)

How the values were obtained:
ISP1 transcripts = assay: RT-PCR of ISP1 transcripts in oligodeoxynucleotide-treated blastocysts; format: cell-based, mouse; details: after eight hours of culture
Experimental: The presence of ISP1 transcripts in embryos and placentas was monitored using RT-PCR. Total RNA (1 μg) was reverse transcribed and amplified using ISP1 specific primers (ISP1 for 5′-[…]-3′; SEQ ID NO:9 and ISP1rev 5′-GTCAAAGATGGCCACAGC-3+: SEQ ID NO: 10) and forty rounds of thermal cycling (1 min at 94° C., 2 min at 60° C., and 2 min at 72° C.). The RT-PCR amplification of GAPDH (as a control for mRNA loading) is described elsewhere (Arcellana-Panlilio and Schultz, 1993). The predicted 175 and 380 bp amplification products were separated on a 2% (w/v) agarose gel.
(§1) In antisense oligodeoxynucleotide studies, harvested blastocysts were placed in 0.001% (v/v) L-a-lysophosphatidylcholine for 60 seconds (Jones et al., 1997) and were transferred to microdrops equilibrated with 2.5 μM, 5 μM oligodeoxynucleotide or an equal volume of H2O (Behrendtsen et al., 1995). Two antisense oligodeoxynucleotides were designed against regions surrounding ISP1's initiation codon: AS1 (5′-[…]-3′; SEQ ID NO;13) situated upstream, AS2 (5′-[…]-3′; SEQ ID NO:14) lying downstream. A control oligodeoxynucleotide, SS1 (5′-[…]-3′; SEQ ID NO:15), represented the scrambled sense sequence surrounding the initiation codon. […] Blastocysts were scored at 20, 30, 40, and 60 hours for progress in hatching. […] Progress in outgrowth was monitored over a period of 5 days.

strypsin = assay: Histochemical staining of strypsin activity in blastocysts; format: cell-based, mouse; details: 24 hours of treatment
Experimental: Whole embryo RNA in situ hybridization using digoxigenin-labelled RNA probes was performed essentially as previously described (Rancourt and Rancourt, 1997). The ISP1 probe comprised the 478 bp RT-PCR subclone in pBSKS^+. The ISP2 probe also comprised a 478 by RT-PCR subclone in pBSKS^+. The antisense probes were synthesized using T3 polymerase after plasmid linearization with EcoRI. The sense probes were synthesized using T7 polymerase after plasmid linearization with BamHI. All experiments were performed with the sense RNA probe in parallel to detect non-specific hybridization. Histochemical staining of strypsin activity was performed essentially as outlined previously (Perona and Wassarman, 1986). Embryos were collected as early blastocysts in M2 medium, and were lightly fixed in 1.25% (w/v) glutaraldehyde in 0.25M sucrose, 50 mM sodium phosphate (pH7.5) for five min at 4° C. Following fixation, the blastocysts were placed in 50 mM sodium phosphate (pH7.5) containing the substrate N-α-benzoyl-DL-arginine β-napthylamide (0.56 mM; Sigma) and Fast Garnet GBC salt (1.86 mM; Sigma), were incubated for 5 min at room temperature and washed in 50 mM sodium phosphate (pH7.5).
as §1

hatched blastocysts = assay: Blastocyst outgrowth on extracellular matrix after hatching; format: cell-based, mouse; details: prehatched blastocysts in culture with oligodeoxynucleotide
Experimental: (§2) Morulae were collected from oviducts of superovulated, 2.5 day pregnant dams in M2 medium (Hogan et al., 1994). For hatching, morulae were cultured in microwells for approximately 24 hrs at 37° C., 5% CO2 in KSOMaa medium (Erbach et al., 1994). In embryo outgrowth, hatched blastocysts were cultured for an additional 48 hrs at 37° C., 5% CO2 in Dulbecco's Modified Eagle's Medium plus 5% (v/v) fetal bovine serum on microwells coated with extracellular matrix derived from 10% (v/v) Triton X-100-treated mouse embryo fibroblasts (Behrendtsen et al., 1995).
as §1

Mouse Blastocysts = assay: In vitro blastocyst hatching after oligodeoxynucleotide administration; format: cell-based; details: for Percent Hatched over Time: 100 blastocysts; for effect on blastocyst hatching (in words): scored at 20, 30, 40 and 60 hours
Experimental: as §2
In antisense oligodeoxynucleotide studies, harvested blastocysts were placed in 0.001% (v/v) L-a-lysophosphatidylcholine for 60 seconds (Jones et al., 1997) and were transferred to microdrops equilibrated with 2.5 μM, 5 μM oligodeoxynucleotide or an equal volume of H2O (Behrendtsen et al., 1995). Two antisense oligodeoxynucleotides were designed against regions surrounding ISP1's initiation codon: AS1 (5′-[…]-3′; SEQ ID NO;13) situated upstream, AS2 (5′-[…]-3′; SEQ ID NO:14) lying downstream. A control oligodeoxynucleotide, SS1 (5′-[…]-3′; SEQ ID NO:15), represented the scrambled sense sequence surrounding the initiation codon. The oligodeoxynucleotides were designed using Oligo™ software and were synthesized and purified by Dr. Richard Pon, UC DNA Services (University of Calgary). Blastocysts were scored at 20, 30, 40, and 60 hours for progress in hatching. […] Following eight hours of treatment, some blastocysts were assayed for the presence of ISP1 transcripts using RT-PCR. Following 24 hours of treatment, some blastocysts were assayed for strypsin activity using histochemical staining. In outgrowth studies, blastocysts were allowed to hatch and then transferred to microdrops equilibrated with oligodeoxynucleotide or water. Progress in outgrowth was monitored over a period of 5 days.
A possible role for ISP1 in hatching was examined by determining whether ISP1 mRNA could be reduced in blastocysts by treatment with antisense oligodeoxynucleotides (Behrendtsen et al., 1995; Jones et al., 1997) and result in an alteration of the hatching process. Two antisense oligodeoxynucleotides were designed surrounding ISP1's initiation codon covering the region immediately upstream (AS1) and downstream (AS2). A control oligodeoxynucleotide (SS1) represented the scrambled sense sequence surrounding the initiation codon. Blastocysts were scored at 20, 30, 40, and 60 hours for progress in hatching.

ISP2 mRNA = assay: Uterine ISP2 gene expression by in situ hybridization in hormone- or RU486-treated mice; format: in vivo, mouse; details: for induction of ISP2 gene expression: after ovariectomy without progesterone maintenance, up to 14 days; for maintenance of ISP2 gene expression: delayed implantation after ovariectomy
Experimental: All surgical procedures were carried out after the mice were anaesthetized with an i.p. injection of Avertin (2% (w/v) tribromoethanol; Aldrich Chemical Co. Milwaukee, Wis.). Ovariectomy was performed by dorsal-lateral incision (Hogan et al., 1994). Ovariectomized mice were allowed at least 1 wk for recovery before the induction of deciduomas. All steroid hormones including RU486 were dissolved in sesame oil and injected s.c. At each stage of the experiment, control mice were used which received only oil (0.1 ml/mouse) injections. The standard regimen for artificial induction of deciduomas (Finn, 1966) was modified to more closely mimic pseudo-pregnancy (Milligan, 1995). Here, the first progesterone treatment was started […] after exposure to oestrogen. This modified regimen consisted of 100 ng oestrogen daily starting on Day 0, and 1 mg progesterone plus 10 ng oestrogen from day three onward. Deciduomas were induced surgically on Day 5 (between 1400-1600 h) by injecting sesame oil (10 μl) into the lumen of one uterine horn from its oviductal tip. Injected and uninjected horns were collected 24, 48 or 72 hours later for histological sectioning and in situ hybridization analysis.
Delayed implantation was induced and maintained by ovariectomising mice on day 3 of pregnancy, followed by administration of progesterone (2 mg/mouse) on days 4 to 6. Subsequently, half these mice were treated with estrogen (25 ng/mouse) on the morning of the seventh day, while the other half received the normal progesterone injection. Mice were sacrificed 24 hours later for analysis by in situ hybridization.
The effect of steroids on uterine development in the absence of blastocysts was examined by ovariectomizing mice and treating them with hormone injections after a two week recovery period. They received injections of either progesterone (1 mg/mouse), estrogen (100 ng/mouse), or a combination of both (10 ng estrogen and 1 mg progesterone/mouse) for three days. Mice were then sacrificed on the morning of the fourth day. To further determine the importance of progesterone on ISP2 gene expression superovulated pregnant and pseudo-pregnant mice (Hogan et al., 1994) were treated with RU486 (400 μg/mouse) on the morning of the third day after a vaginal plug was detected. The mice were then sacrificed 24 hours later and their uterine horns were collected for in situ hybridization analysis.
Whole embryo RNA in situ hybridization using digoxigenin-labelled RNA probes was performed essentially as previously described (Rancourt and Rancourt, 1997). The ISP1 probe comprised the 478 bp RT-PCR subclone in pBSKS^+. The ISP2 probe also comprised a 478 by RT-PCR subclone in pBSKS^+. The antisense probes were synthesized using T3 polymerase after plasmid linearization with EcoRI. […]

SS1: control oligodeoxynucleotide, scrambled sense sequence surrounding the ISP1 initiation codon, 5′-ACGGTAGTTAGAAGAGTTCT-3′; SEQ ID NO:15 (DNA, backbone and methylation of C not given here) [reference compound]
ISP1 transcript levels (in words) (ISP1 transcripts; versus untreated controls): significant reduction was not observed | strypsin activity at the abembryonic pole (histochemical) (strypsin): localized strypsin activity was observed | time to adhere to extracellular matrix (hatched blastocysts): 2 days | Percent Hatched over Time (Mouse Blastocysts; 2.5 µM, 20 hours): 10% | Percent Hatched over Time (Mouse Blastocysts; 2.5 µM, 30 hours): 16% | Percent Hatched over Time (Mouse Blastocysts; 2.5 µM, 40 hours): 58% | Percent Hatched over Time (Mouse Blastocysts; 2.5 µM, 60 hours): 90% | Percent Hatched over Time (Mouse Blastocysts; 5.0 µM, 20 hours): 10% | Percent Hatched over Time (Mouse Blastocysts; 5.0 µM, 30 hours): 39% | Percent Hatched over Time (Mouse Blastocysts; 5.0 µM, 40 hours): 61% | Percent Hatched over Time (Mouse Blastocysts; 5.0 µM, 60 hours): 77%

AS1: antisense oligodeoxynucleotide upstream of ISP1's initiation codon, 5′-TCTAACTACCGTCTAACAACG-3′; SEQ ID NO:13 (DNA, backbone and methylation of C not given here)
reduction of accumulation of ISP1 transcripts (ISP1 transcripts): at least 100 fold | strypsin activity at the abembryonic pole (histochemical) (strypsin): reduced strypsin activity | strypsin activity at the abembryonic pole (histochemical) (strypsin; listed as antisense oligodeoxynucleotide): strypsin activity was absent | time to adhere to extracellular matrix (hatched blastocysts): 5 days | Percent Hatched over Time (Mouse Blastocysts; 2.5 µM, 20 hours): 0% | Percent Hatched over Time (Mouse Blastocysts; 2.5 µM, 30 hours): 0% | Percent Hatched over Time (Mouse Blastocysts; 2.5 µM, 40 hours): 16% | Percent Hatched over Time (Mouse Blastocysts; 2.5 µM, 60 hours): 37% | Percent Hatched over Time (Mouse Blastocysts; 5.0 µM, 20 hours): 10% | Percent Hatched over Time (Mouse Blastocysts; 5.0 µM, 30 hours): 10% | Percent Hatched over Time (Mouse Blastocysts; 5.0 µM, 40 hours): 20% | Percent Hatched over Time (Mouse Blastocysts; 5.0 µM, 60 hours): 20% | effect on blastocyst hatching (in words) (Mouse Blastocysts): interfered specifically with blastocyst hatching

AS2: antisense oligodeoxynucleotide downstream of ISP1's initiation codon, 5′-GAACTCTTCTAACTACCGTCT-3′; SEQ ID NO:14 (DNA, backbone and methylation of C not given here)
Percent Hatched over Time (Mouse Blastocysts; 2.5 µM, 20 hours): 0% | Percent Hatched over Time (Mouse Blastocysts; 2.5 µM, 30 hours): 20% | Percent Hatched over Time (Mouse Blastocysts; 2.5 µM, 40 hours): 35% | Percent Hatched over Time (Mouse Blastocysts; 2.5 µM, 60 hours): 40% | Percent Hatched over Time (Mouse Blastocysts; 5.0 µM, 20 hours): 0% | Percent Hatched over Time (Mouse Blastocysts; 5.0 µM, 30 hours): 5% | Percent Hatched over Time (Mouse Blastocysts; 5.0 µM, 40 hours): 35% | Percent Hatched over Time (Mouse Blastocysts; 5.0 µM, 60 hours): 45% | effect on blastocyst hatching (in words) (Mouse Blastocysts): interfered specifically with blastocyst hatching

estrogen
induction of ISP2 gene expression (ISP2 mRNA): did not have a stimulatory effect | maintenance of ISP2 gene expression (ISP2 mRNA): not observed

CC(=O)[C@H]1CC[C@H]2[C@@H]3CCC4=CC(=O)CC[C@]4(C)[C@H]3CC[C@]12C [progesterone]
induction of ISP2 gene expression (ISP2 mRNA): could be induced | maintenance of ISP2 gene expression (ISP2 mRNA): normal ISP2 expression was observed
